Measurements: paper PMC8636556, “Cloning, expression, purification and characterization of chitin deacetylase extremozyme from halophilic Bacillus aryabhattai B8W22” (3 Biotech, 2021)

Target: T1, BaCDA (Priestia aryabhattai, UniProt A0A7W3NGR0)
T1 construct: gene HNP21_005748
Experiment: biochemical
Settings: read-out: Relative activity (%) / Ethylene glycol chitin

T1 sequence (A0A7W3NGR0 1-254): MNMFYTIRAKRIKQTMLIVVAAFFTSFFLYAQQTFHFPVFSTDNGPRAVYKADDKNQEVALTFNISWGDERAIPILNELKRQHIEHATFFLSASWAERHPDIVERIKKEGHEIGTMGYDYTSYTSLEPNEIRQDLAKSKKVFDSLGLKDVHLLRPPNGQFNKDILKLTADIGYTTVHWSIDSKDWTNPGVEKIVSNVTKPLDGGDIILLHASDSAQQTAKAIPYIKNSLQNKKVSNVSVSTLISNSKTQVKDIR

activity at 10000 µM: 49.9 ± 3.89%
Structure (SMILES): CC(=O)O [acetate]
